The record followed here is patent US6277418A, “Corn extract contraceptive” (Baylor College of Medicine, priority 1999, dated 2001).

Assay [1] deals with MCF-7 (ER+) human breast cancer cells. As to the kind of experiment: MCF-7 cell proliferation (cell number). The assay is classed as cell-based. An excerpt: An aliquot of the GCCB crude extract was fractionated on a Spice C18 Cartridge (a reverse phase column using aliphatic groups attached to a matrix to form a hydrophobic adsorbent. Rainin Instruments Company). Briefly, a GCCB extract in 20% methanol in water was loaded onto a spice cartridge and the pass through (20% methanol) fraction was collected. The column was sequentially eluted with a solution of water comprising 40%, 60%, and 80% methanol in water. The final elution was with 100% methanol. Each fraction, including the pass through fraction, was collected and dried at 50° C. under nitrogen to remove methanol. The eluate was re-dissolved in 100% ethanol. […] Six days following treatment, cell number was determined by hemocytometer counts and results are expressed as cell number in treated wells relative to ethanol controls (100%) as described (B. M. Markaverich et al., J. Steroid Biochem. 29:71-78, 1988; B. M. Markaverich et al., Cancer Res. 50: 1470-1478, 1990; B. M. Markaverich et al., JBC 263: 7203-7210, 1988; B. M. Markaverich et al., Internat. J. Oncol. 4:1291-1300, 1994).
In a further study, the effects of fractionated GCCB extract on the proliferation of the MCF-7 and MDA-231 human breast cancer cells were analyzed. […] Six days following treatment, cell number (% Control) was determined. […]
Cell number was determined 6 days following treatment. […]

The target in a further assay is T1, estrogen receptor (Rattus norvegicus, UniProt P06211).
T1 sequence (P06211 1-600): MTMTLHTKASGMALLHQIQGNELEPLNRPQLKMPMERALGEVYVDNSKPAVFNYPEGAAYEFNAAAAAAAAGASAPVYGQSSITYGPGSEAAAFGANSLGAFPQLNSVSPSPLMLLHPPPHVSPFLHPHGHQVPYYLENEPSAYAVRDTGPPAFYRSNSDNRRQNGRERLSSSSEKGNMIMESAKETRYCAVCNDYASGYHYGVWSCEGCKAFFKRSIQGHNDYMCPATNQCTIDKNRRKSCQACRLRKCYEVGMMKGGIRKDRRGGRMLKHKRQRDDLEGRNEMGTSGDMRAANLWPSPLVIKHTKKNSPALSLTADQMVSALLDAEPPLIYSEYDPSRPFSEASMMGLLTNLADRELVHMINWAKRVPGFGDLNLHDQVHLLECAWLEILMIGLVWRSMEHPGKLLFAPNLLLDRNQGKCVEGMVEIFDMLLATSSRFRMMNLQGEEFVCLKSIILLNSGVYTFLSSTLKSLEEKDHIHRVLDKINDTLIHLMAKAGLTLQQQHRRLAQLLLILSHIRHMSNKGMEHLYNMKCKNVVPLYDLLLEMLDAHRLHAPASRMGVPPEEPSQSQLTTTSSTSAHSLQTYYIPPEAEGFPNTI
As to the kind of experiment: [3H]estradiol binding to estrogen receptor in rat uterine cytosol. The conditions noted are these: 10 nM [3H]estradiol, extracts rediluted 1:1000, 1-50 μl.

Regarding `C[C@]12CC[C@@H]3c4ccc(O)cc4C[C@@H](CCCCCCCCC[S+]([O-])CCCC(F)(F)C(F)(F)F)[C@H]3[C@@H]1CC[C@@H]2O` (stereo partly drawn) [ICI-182,780], the “inhibition of MCF-7 proliferation by antiestrogen alone” value in assay [1] (10 nM, in the absence of estrogen, 6 days) is reported as “failed to inhibit”. In addition, the inhibition at 0.01 µM in assay [1] (Homo sapiens, MCF7, 144 h, read-out: block of the estradiol-induced stimulation of MCF-7 cell proliferation) is over 50%.
On to `O=c1c(-c2ccc(O)cc2)coc2cc(O)ccc12` [daidzein], for which the “competition for [3H]estradiol binding to estrogen receptor” value on estrogen receptor is given as “competitively inhibit”.
